Test results published in article PMC7061341, “Detection of the in vitro modulation of Plasmodium falciparum Arf1 by Sec7 and ArfGAP domains using a colorimetric plate-based assay” (Scientific Reports, 2020).

Tests used:
ARNO = target: T1, ARNO (Homo sapiens, UniProt Q99418); assay: plate-based GST-GGA3 GAT binding nucleotide exchange assay, […] compound; assay type: biochemical
T1 construct: gene CYTH2; Sec7 domain, amino acids 51–253; with Arf1 (NΔ17HsArf1 or NΔ17PfArf1, GDP-loaded)

[1] = target: ^NΔ17PfArf1 (His-tagged P. falciparum Arf1 minus the N-terminal 17 amino acids) (Plasmodium falciparum) (UniProt Q7KQL3)
PfArfGAP1 = target: T2, PfArfGAP1 (Plasmodium falciparum, UniProt Q8I4Y5); assay: plate-based GST-GGA3 GAT binding GAP assay; confirmed by tryptophan fluorescence; assay type: biochemical
T2 construct: gene PF3D7_1244600; GAP domain, amino acids 1–161; with PfArf1 (NΔ17, GTP-loaded)

T1 sequence (Q99418 51-253): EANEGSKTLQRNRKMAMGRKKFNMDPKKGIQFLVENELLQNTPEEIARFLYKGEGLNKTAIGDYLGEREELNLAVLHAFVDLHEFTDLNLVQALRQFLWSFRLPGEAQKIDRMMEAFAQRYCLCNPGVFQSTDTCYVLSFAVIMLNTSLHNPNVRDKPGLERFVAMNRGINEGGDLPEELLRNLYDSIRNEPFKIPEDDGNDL
T1 sequence (P84077 18-181 partner): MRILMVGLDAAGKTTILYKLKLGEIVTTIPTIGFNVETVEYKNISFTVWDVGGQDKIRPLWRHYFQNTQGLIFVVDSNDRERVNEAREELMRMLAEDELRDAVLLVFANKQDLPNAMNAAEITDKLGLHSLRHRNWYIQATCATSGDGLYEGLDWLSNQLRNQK

## SecinH3
ARNO
  % inhibition at 50 μM: 93

## PfArfGAP1^GAP (putative GAP domain of P. falciparum ArfGAP1) (domain or fragment)
[1]
  half-maximal GAP activity (EC50): deactivation of 1 µM ^NΔ17PfArf1-GTP by three-fold serial dilutions (0.5–0.002 µM) of the GAP domain, read by the GST-GGA3^GAT binding assay: 21 nM

## CC1(C(=O)Nc2cccc3cccnc23)CCN1C(=O)CCC1CCCC1 (stereo not drawn) [Chem1099]
PfArfGAP1
  IC50: 4700 nM
